Results taken from patent US9295732B2, “Conjugated TLR7 and/or TLR8 and TLR2 polycationic agonists” (CAYLA, priority 2013, dated 2016).
Where “and” joins values, the source holds several entries; their conditions need not be identical. Equal entries are not always repeated.

Tests used:
B16-F1 tumor = test: In vivo mouse B16-F1 tumor model, molecule alone; parameters: species or system C57BL/6 mice; settings: by day 42, intra-tumoral injections, FIG. 8B
Method: Measurements were performed under gas anesthesia.
The second group received intra-tumoral injections of CL413 molecule alone (a TLR7-TLR2 Pam2CSK4-based molecule). Third and forth groups received intra-tumoral injections of the TLR2 ligand, Pam2CSK4 alone, and the TLR7 ligand alone, respectively. A fifth group received a combined treatment of Pam2CSK4 and TLR7 ligand, in solution at the equivalent molecule quantity of the respective TLR2 and TLR7 moieties in CL413 (in 100 μl Bionolyte G5® with Pluronic® F-68 2%) for a total of 3 injections.

human TLR2 = target: T1, human TLR2 (Homo sapiens, UniProt O60603); test: HEK-Blue hTLR2 NF-κB/AP-1 SEAP reporter assay; format: cell-based; settings: HEK-Blue hTLR2 cells, 10 μg/mL to 10 pg/ml, 24 hours, OD at 655 nm, FIG. 3
T1 construct: host or cells: HEK293 (HEK-Blue™ hTLR2)
Method: (§1) Cell-based assays were carried out using TLR7 and TLR2 reporter cell lines (InvivoGen). The reporter cell lines are engineered HEK293 cells, a human embryonic kidney cell line (ATCC, CRL-1573) that stably express either murine TLR7 (HEK-Blue™ mTLR7) or human TLR7 (HEK-Blue™ hTLR7) or human TLR2 (HEK-Blue™ hTLR2) with an NF-κB-inducible secreted embryonic alkaline phosphatase (SEAP) as the reporter gene. The SEAP reporter gene is under the control of the NF-κB and AP-1-inducible promoter, which, upon treatment with a corresponding TLR ligand and activation of NF-κB and AP-1, induces the production of SEAP. Detection of SEAP is measured following culturing cells in HEK-Blue™ Detection media (InvivoGen). HEK-Blue™ Detection contains a SEAP substrate that when hydrolysed by SEAP produces a colorimetric change allowing for detection of SEAP as the protein is secreted. […] These assays were carried out using RAW-Blue™ Cells (InvivoGen), derived from RAW 264.7 mouse leukemic monocyte macrophage cell line (ATCC, CRL 2278) stably overexpressing a NF-B/AP-1 inducible SEAP reporter constructs.
(§2) To perform the assay, cells were seeded on 96 well microliter plates at 50,000 or 100,000 cells per well for HEK-Blue™ Cells and RAW-Blue™ Cells respectively, and cultured at 37° C. in the presence of the conjugated compounds The TLR7-TLR2 polyamine molecules were prepared as follows: First, stock solutions of the conjugated compounds of the invention were prepared in ethanol or water to a concentration of 10 mg/ml.
(§3) The working dilutions of the conjugated TLR7-TLR2 polyamine agonists made up in water or PBS were directly added to the reporter cell lines at a final concentration ranging from 10 μg/mL to 10 pg/ml and incubated at 37° C. for 24 hours. After 24 hours of incubation, the effect on reporter gene activity was determined by reading the OD at 655 nm using iMark™ Microplate Reader (BIO-RAD).

human TLR7 = target: T2, human TLR7 (Homo sapiens, UniProt Q9NYK1); test: HEK-Blue hTLR7 NF-κB/AP-1 SEAP reporter assay; format: cell-based; settings: HEK-Blue hTLR7 cells, 10 μg/mL to 10 pg/ml, 24 hours, OD at 655 nm, FIG. 1
T2 construct: host or cells: HEK293 (HEK-Blue™ hTLR7)
T2 sequence (Q9NYK1 27-1049): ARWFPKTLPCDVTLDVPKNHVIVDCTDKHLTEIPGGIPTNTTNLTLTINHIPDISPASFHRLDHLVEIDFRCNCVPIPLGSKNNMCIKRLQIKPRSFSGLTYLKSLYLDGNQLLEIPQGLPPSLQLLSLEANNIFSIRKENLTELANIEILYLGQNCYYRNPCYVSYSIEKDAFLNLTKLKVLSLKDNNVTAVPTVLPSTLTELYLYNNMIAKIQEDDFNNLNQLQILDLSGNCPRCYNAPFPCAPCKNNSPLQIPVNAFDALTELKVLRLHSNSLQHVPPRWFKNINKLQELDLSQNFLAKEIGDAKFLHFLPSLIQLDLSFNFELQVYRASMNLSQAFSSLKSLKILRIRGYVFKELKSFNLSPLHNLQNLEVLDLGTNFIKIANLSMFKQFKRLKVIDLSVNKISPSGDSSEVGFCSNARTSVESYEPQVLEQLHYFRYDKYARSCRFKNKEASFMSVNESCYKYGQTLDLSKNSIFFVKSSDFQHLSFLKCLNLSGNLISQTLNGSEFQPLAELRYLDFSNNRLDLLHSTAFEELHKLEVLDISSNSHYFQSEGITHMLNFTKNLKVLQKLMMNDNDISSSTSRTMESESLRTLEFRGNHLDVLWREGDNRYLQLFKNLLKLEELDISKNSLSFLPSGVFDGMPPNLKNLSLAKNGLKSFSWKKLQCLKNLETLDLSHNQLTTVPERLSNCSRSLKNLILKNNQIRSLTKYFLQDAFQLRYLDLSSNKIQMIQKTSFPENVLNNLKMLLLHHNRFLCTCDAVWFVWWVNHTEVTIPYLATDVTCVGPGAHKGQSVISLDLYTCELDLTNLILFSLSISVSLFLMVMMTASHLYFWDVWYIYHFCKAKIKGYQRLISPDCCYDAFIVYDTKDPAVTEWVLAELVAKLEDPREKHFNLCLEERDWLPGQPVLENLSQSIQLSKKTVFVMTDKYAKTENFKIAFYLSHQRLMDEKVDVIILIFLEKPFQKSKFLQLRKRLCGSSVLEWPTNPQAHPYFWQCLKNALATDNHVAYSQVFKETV
Method: as §1, §2, §3

murine TLR7 = target: T3, murine TLR7 (Mus musculus, UniProt P58681); test: HEK-Blue mTLR7 NF-κB/AP-1 SEAP reporter assay; format: cell-based; settings: HEK-Blue mTLR7 cells, 10 μg/mL to 10 pg/ml, 24 hours, OD at 655 nm, FIG. 2
T3 construct: host or cells: HEK293 (HEK-Blue™ mTLR7)
T3 sequence (P58681 27-1050): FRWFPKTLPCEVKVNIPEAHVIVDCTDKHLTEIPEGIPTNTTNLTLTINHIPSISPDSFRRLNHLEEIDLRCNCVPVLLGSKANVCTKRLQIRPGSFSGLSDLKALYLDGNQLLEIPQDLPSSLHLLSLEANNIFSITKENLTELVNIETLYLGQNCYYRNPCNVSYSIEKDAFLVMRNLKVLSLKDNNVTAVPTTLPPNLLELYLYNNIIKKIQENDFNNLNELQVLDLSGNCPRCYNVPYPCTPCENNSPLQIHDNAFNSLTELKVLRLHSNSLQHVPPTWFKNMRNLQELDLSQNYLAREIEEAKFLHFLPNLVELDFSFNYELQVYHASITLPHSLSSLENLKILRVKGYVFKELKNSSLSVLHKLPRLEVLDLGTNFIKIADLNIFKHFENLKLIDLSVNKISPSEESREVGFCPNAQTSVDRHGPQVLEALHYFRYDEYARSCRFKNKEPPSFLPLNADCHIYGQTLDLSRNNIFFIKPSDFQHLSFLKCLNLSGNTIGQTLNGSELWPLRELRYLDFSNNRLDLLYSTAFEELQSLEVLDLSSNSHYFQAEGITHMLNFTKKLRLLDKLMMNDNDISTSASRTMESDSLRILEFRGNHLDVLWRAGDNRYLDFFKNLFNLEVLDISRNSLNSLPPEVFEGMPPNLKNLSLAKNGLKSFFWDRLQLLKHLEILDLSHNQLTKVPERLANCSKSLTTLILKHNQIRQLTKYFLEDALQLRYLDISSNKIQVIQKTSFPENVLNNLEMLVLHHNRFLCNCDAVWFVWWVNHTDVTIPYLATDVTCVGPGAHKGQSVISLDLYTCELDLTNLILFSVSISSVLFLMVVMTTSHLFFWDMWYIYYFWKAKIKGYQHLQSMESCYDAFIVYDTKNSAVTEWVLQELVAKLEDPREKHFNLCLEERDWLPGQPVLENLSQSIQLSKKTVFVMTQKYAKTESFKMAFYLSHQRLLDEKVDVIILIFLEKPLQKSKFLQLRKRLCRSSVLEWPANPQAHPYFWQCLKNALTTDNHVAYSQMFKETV
Method: as §1, §2, §3

plasmid DNA (pDNA) = test: Gel shift (mobility shift) assay of pDNA complexation; format: binding; settings: pDNA:molecule ratio 3:24 (w:w), 0.8% agarose gel, compared to pDNA alone
Method: Then, 10 μl of pDNA:TLR7-TLR2 polyamine molecule complexes and 2 μl of charge buffer were mixed and loaded into wells of a 0.8% agarose gel. Samples were migrated through the gel in TAE buffer under 135 voltage for 21 mins and the migration of the pDNA was visualized following ethidium bromide staining under UV light. The ability of TLR7-TLR2 polyamine molecules to complex/associate with the pDNA was identified by partial or complete retardation of the pDNA migration toward the anode in the gel compared to pDNA alone. […] Ethidium bromide intercalation of pDNA in complex with molecules allowed visualization of complexed pDNA as a smear in the wells of the gel.

[1] = Nanoparticle (lipoplex) size by dynamic light scattering; settings: 25° C., triplicate;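 also: lipoplexes of TLR7-TLR2 polyamine conjugates with plasmid DNA, formed over 30 min at room temperature in serum-free medium or 5% glucose, diameter in nm, PDI dimensionless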
[2] = tested on: endogenous TLR2 and TLR7 in RAW-Blue™ Cells; test: RAW-Blue Cells NF-κB/AP-1 SEAP reporter assay; format: cell-based, mouse; settings: 24 hours, OD at 655 nm, FIG. 4
Method: as §1, §2, §3

T1 sequence (O60603 21-784): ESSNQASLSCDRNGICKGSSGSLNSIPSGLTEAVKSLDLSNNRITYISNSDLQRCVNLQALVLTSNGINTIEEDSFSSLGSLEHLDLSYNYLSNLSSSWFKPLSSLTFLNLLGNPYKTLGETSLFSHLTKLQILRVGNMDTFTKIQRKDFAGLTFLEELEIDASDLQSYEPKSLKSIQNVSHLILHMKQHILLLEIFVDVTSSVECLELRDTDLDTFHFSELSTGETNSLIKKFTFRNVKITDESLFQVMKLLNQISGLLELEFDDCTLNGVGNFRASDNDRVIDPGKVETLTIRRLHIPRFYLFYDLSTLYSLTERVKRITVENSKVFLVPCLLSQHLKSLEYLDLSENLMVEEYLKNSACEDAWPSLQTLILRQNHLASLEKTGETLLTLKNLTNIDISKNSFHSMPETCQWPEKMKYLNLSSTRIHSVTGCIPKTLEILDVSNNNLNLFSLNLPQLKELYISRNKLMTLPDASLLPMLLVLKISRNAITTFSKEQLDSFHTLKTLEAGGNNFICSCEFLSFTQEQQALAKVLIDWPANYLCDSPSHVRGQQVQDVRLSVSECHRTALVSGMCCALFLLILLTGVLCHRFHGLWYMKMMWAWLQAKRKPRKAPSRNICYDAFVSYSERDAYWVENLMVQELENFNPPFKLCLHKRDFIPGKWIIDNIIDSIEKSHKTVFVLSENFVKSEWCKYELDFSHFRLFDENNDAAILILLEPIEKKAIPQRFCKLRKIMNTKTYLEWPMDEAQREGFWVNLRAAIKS

ability to activate hTLR2 (human TLR2)	ability to activate hTLR7 (human TLR7)	ability to activate mTLR7 (murine TLR7)	Mean Diameter ([1]; complexes with pDNA 3:24 (w:w), dynamic light scattering)	PDI ([1]; polydispersity index of complexes with pDNA 3:24 (w:w))	Compound	mice still alive (survival) (B16-F1 tumor) [%]	ability to complex pDNA (retardation of pDNA migration in agarose gel) (plasmid DNA (pDNA))	ability to activate endogenous TLR2 and TLR7 in RAW-Blue Cells [2]
					dipalmitoyl-S-glyceryl cysteine-serine-(lysine)4 [Pam2CSK4, reference compound]	60		
activate hTLR2	activate hTLR7	activate mTLR7	202.0 nm and 209.2 nm and 179.7 nm	0.234 and 0.236 and 0.232	CCCCCCCCCCCCCCCC(=O)OCC(CSC[C@H](N)C(=O)NCCCC[C@H](NC(=O)c1ccc(Cn2c(O)nc3c(N)nc(NCCCC)nc32)cc1)C(=O)NCCCNCCCCNCCCN)OC(=O)CCCCCCCCCCCCCCC (stereo partly drawn) [CL486, (6R,13S)-6,27-diamino-13-(4-((6-amino-2-(butylamino)-8-hydroxy-9H-purin-9-yl)methyl)benzamido)-7,14-dioxo-4-thia-8,15,19,24-tetraazaheptacosane-1,2-diyl dipalmitate]		inability to migrate through an agarose gel	activate endogenous TLR2 and TLR7
